TGI and GI50 data for 30 compounds are collected here from PubChem BioAssay (NCI).

Assay in all cases: NCI-60 cell line screen, 48 h
Assay [1] relates to 786-0 renal.
In assay [2] the test system is HL-60(TB) leukemia.
Assay [3] has as its system MDA-MB-435.
Assay [4] concerns SN12C renal.
The test system of assay [5] is SR leukemia.
Assay [6] relates to A498 renal.
Assay [7] deals with SNB-19 CNS.
In assay [8] the test system is TK-10 renal.
The test system of assay [9] is HCT-116 colon.

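In this assay, cells in 96-well plates receive the compound at five concentrations for 48 hours. Endpoints are linearly interpolated between the surrounding concentrations. GI50: concentration for 50% inhibition of growth. Definition used: TGI = concentration required for complete inhibition of growth.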 Peptide text beside a SMILES is read from it. * marks the point of attachment. X26 = Clc1c(Cl)c(Cl)c(O*)c(Cl)c1Cl; Boc = CC(C)(C)OC(=O)*; OBn = c1ccc(CO*)cc1; Bn = c1ccc(C*)cc1

Turning to `Cc1cnc2[nH]c(-c3cccc(F)c3)cc(=O)c2c1`, the TGI in [1] is greater than 83.6 µM; in assay [2] it was 0.0628 µM; in assay [3], 0.0228 µM; in assay [4], greater than 100 µM; in [5] it was 0.378 µM.

Turning to `CN(C)CCNc1c([N+](=O)[O-])sc2ccc(Cl)cc12`, the TGI was 49.1 µM in assay [1]; greater than 100 µM in assay [6]; greater than 100 µM in assay [2]; greater than 100 µM in assay [3]; greater than 100 µM in assay [4]; greater than 100 µM in assay [7]. Moreover, the TGI in [5] and in assay [8] was greater than 100 µM throughout.

For the compound `O=c1[nH]c(=O)n(C2CC(O)C(CO)O2)cc1OC/C=C/Cc1ccccc1` (stereo not given), the TGI in [1], in assay [9], in assay [2], in assay [3], in assay [4] and in assay [7] was greater than 100 µM each time. In addition, the TGI in [5] and in assay [8] was greater than 100 µM each time.

Regarding `CC(=O)N(C)c1ccc(Nc2ccnc3ccc4nn(C)nc4c23)cc1`, the TGI was greater than 100 µM in assay [1]; 53.1 µM in assay [9]; 38.8 µM in [2]; greater than 100 µM in assay [3]; greater than 100 µM in [4]; greater than 100 µM in assay [7]. Besides, the TGI in assay [5] was determined as 77.1 µM; in assay [8] it was 70.2 µM.

On to `O=C(/C=C\Nc1ccccc1O)C(F)(F)F`, for which the TGI is greater than 100 µM in assay [1]; greater than 100 µM in [9]; 67.8 µM in [2]; greater than 100 µM in assay [3]; greater than 100 µM in assay [4]; greater than 100 µM in assay [7]. Moreover, the TGI in assay [5] and in assay [8] was greater than 100 µM throughout.

Turning to `Cc1ccc2c(c1C)CC1(Cc3c(C)ccc(C)c3C1=O)C2=O` (stereo not given), the TGI in [1], in assay [6], in assay [9], in assay [2], in [3] and in assay [4] was greater than 100 µM throughout. Also, the TGI in assay [7] and in assay [8] was greater than 100 µM each time.

In the case of `CC1CCc2sc3nc4n(c(=O)c3c2C1)CC(C)S4` (stereo not given), the TGI in assay [1] was 65.6 µM; in [9] it was 67.7 µM; in [3], greater than 100 µM; in [4], 53.7 µM; in assay [7], 88.6 µM; in assay [5] it was greater than 100 µM. This compound came in with a TGI in assay [8] of 98.7 µM.

Take `N#Cc1nc(CCCN2C(=O)c3ccccc3C2=O)oc1N`: the TGI in assay [1], in assay [9], in assay [3], in [4], in [7] and in assay [5] was greater than 100 µM in each case. This compound also returned a TGI in [8] greater than 100 µM.

Consider `O=C1NC(=S)NC(=O)C1C(c1ccc(Cl)cc1)C1C(=O)NC(=S)NC1=O`, for which the TGI in assay [1], in assay [6], in assay [9], in assay [2], in assay [3] and in [4] was greater than 100 µM throughout. The TGI in assay [7] and in assay [8] was greater than 100 µM each time.

With `CCN1CCN(Cc2ccc(NC(=O)Nc3ccc(-n4ccc5c(NC(=O)c6ccccc6)nccc54)cc3)cc2C(F)(F)F)CC1`, the GI50 in assay [6] is 5.17 µM; in assay [2], 1.71 µM; in [4] it was 3.17 µM; in assay [5], 0.159 µM; in [8], 1.5 µM. Besides, the TGI is 19.1 µM in [6]; 7.91 µM in assay [2]; greater than 20.7 µM in [4]; greater than 100 µM in [5]; greater than 100 µM in assay [8].

With `C=C1C[C@@H]2CC[C@@]34C[C@H]5O[C@H]6[C@@H](O3)[C@H]3O[C@H](CC[C@@H]3O[C@H]6[C@H]5O4)CC(=O)C[C@@H]3[C@@H](OC)[C@@H](C[C@H](O)CN)O[C@H]3C[C@H]3O[C@@H](CC[C@@H]1O2)C[C@@H](C)C3=C`, the TGI was greater than 1 µM in assay [1]; 0.245 µM in [6]; 0.101 µM in assay [9]; 0.00466 µM in assay [2]; 0.000274 µM in [3]; greater than 1 µM in assay [4]. Moreover, the TGI in assay [7] and in assay [8] was greater than 1 µM in each case. Also, the GI50 in assay [2] was 0.000307 µM; in [7], 0.00127 µM.

In the case of `COc1ccc2c(c1)-c1c(c3cc(OC)ccc3n1CCN(C)C)CC2`, the TGI in assay [1] came out at 22.7 µM; in assay [6], 24.1 µM; in [9], 24.4 µM; in assay [3], 26.4 µM; in [4] it was 26 µM; in assay [5], 25.1 µM. The TGI in [8] worked out at 28.9 µM.

For `N#C/C(=C\c1cccc(Br)c1)c1nc2ccccc2c(=O)[nH]1`, the TGI in [1], in assay [9], in [2], in assay [3], in assay [4] and in assay [7] was greater than 100 µM each time. The TGI in assay [5] and in assay [8] was greater than 100 µM throughout.

Regarding `Oc1c(OCc2nnc(CCCCCCCCc3nnc(COc4ccc5ccccc5c4O)o3)o2)ccc2ccccc12`, the TGI in [1] is 50.8 µM; in assay [6], greater than 100 µM; in [9], 35.6 µM; in assay [3], greater than 100 µM; in assay [4] it was greater than 100 µM; in [7] it was greater than 100 µM. This compound showed a TGI in [8] greater than 100 µM.

As to `CC(C)CC(NC(=O)C(CCC(=O)OCc1ccccc1)NC(=O)OC(C)(C)C)C(=O)NC(COCc1ccccc1)C(=O)NC(Cc1ccccc1)C(=O)Oc1c(Cl)c(Cl)c(Cl)c(Cl)c1Cl` (stereo not given) (Boc-E(OBn)LS(Bn)F-X26; configuration not given here), the TGI came out at 90.7 µM in [1]; 31.6 µM in assay [9]; 95.3 µM in [3]; 90.5 µM in assay [4]; 83 µM in assay [7]; 97.9 µM in assay [5]. Moreover, the TGI in assay [8] came to 72.1 µM.

As for `O=c1ccn(-c2ccccn2)c(=O)n1-c1ccccn1`, the TGI in assay [1], in assay [6], in assay [9], in assay [2], in [3] and in [4] was greater than 100 µM each time. Further, the TGI in assay [7] and in [8] was greater than 100 µM throughout.

With `O=c1oc2ccccc2c(O)c1C=NC(=S)c1ccncc1`, the TGI in [1] was greater than 100 µM; in [9] it was greater than 100 µM; in assay [2], 35.5 µM; in [3], greater than 100 µM; in [4] it was greater than 100 µM; in assay [7] it was greater than 100 µM. The same compound yielded a TGI in [8] greater than 100 µM.

In the case of `CN(C)CCCNc1cc(O)c2c(c1O)C(=O)c1ccccc1C2=O`, the TGI turned out to be 21 µM in [1]; 37 µM in [6]; 18.4 µM in [9]; 29.2 µM in assay [3]; 16.5 µM in [4]; 21.8 µM in [7]. Moreover, the TGI in assay [5] was determined as 15.9 µM; in assay [8] it was 22.1 µM.

As for `S=c1[nH]nc(Cn2c3ccc(Br)cc3c3nc4ccccc4nc32)n1C1CCCCC1`, the TGI in assay [1] was 54.8 µM; in assay [6] it was 58.1 µM; in assay [9] it was 40.2 µM; in assay [3] it was greater than 100 µM; in [4] it was greater than 56.6 µM; in assay [7], greater than 96.7 µM. In addition, the TGI was 60.6 µM in assay [5] and greater than 95.1 µM in assay [8].

With `O=C(CC(C(=O)c1cccs1)c1ccc2c(c1)OCO2)c1ccc(Br)cc1` (stereo not given), the TGI in assay [1], in assay [6], in assay [2], in assay [3], in [4] and in assay [7] was greater than 100 µM each time. Also, the TGI in [5] and in assay [8] was greater than 100 µM throughout.

Regarding `Cc1cc(OCc2nnc3sc(NC(=O)c4ccccc4)nn23)ccc1Cl`, the TGI was greater than 100 µM in [1]; greater than 100 µM in assay [6]; greater than 100 µM in [9]; greater than 100 µM in assay [2]; 50.2 µM in assay [3]; greater than 100 µM in assay [4]. The TGI in [7] and in [8] was greater than 100 µM throughout.

Regarding `CCCCCCc1cc2cc(-c3csc(-c4ccc(OC)cc4)n3)c(=O)oc2cc1O`, the TGI in assay [1] was 18 µM; in [9], 20.1 µM; in [2], greater than 100 µM; in assay [3], 18.4 µM; in [4] it was 23.6 µM; in assay [7] it was 36 µM. Further, the TGI is greater than 100 µM in assay [5] and 34.1 µM in [8].

Regarding `NC(N)=NS(=O)(=O)c1ccc(NC(=O)c2cccc3c(NNc4ccc(S(N)(=O)=O)cc4)c4ccccc4nc23)cc1`, the TGI is greater than 100 µM in assay [1]; greater than 100 µM in [9]; 66.2 µM in assay [2]; greater than 100 µM in assay [3]; greater than 100 µM in assay [4]; greater than 100 µM in assay [7]. Further, the TGI in assay [5] is 82.6 µM; in assay [8], greater than 100 µM.

In the case of `C[C@H](c1ccccc1)N1C(=O)[C@@H](OCc2ccccc2)[C@H]1[C@H](COC(=O)COCc1ccccc1)OCc1ccccc1`, the TGI in assay [1], in assay [6], in assay [9], in assay [3], in [4] and in assay [7] was greater than 100 µM throughout. Further, the TGI in assay [5] and in [8] was greater than 100 µM each time.

For `O=C1/C(=C/c2ccc(Cl)cc2)CCCc2ccc(F)cc21`, the GI50 in assay [9] is greater than 100 µM; in assay [2] it was 17.2 µM; in assay [3], 20.3 µM; in [4] it was 20.1 µM; in [7] it was 27.6 µM; in [8] it was 15.7 µM. Besides, the TGI in assay [9] is greater than 100 µM; in [2] it was greater than 100 µM; in assay [3], greater than 100 µM; in assay [4] it was 42.9 µM; in assay [7] it was 80.2 µM; in assay [8], 43.5 µM.

Consider `CC(C)(C)c1cc(/C=C2/NC(=O)NC2=O)cc(C(C)(C)C)c1O`, for which the TGI in [1] is 33.3 µM; in assay [6] it was 27 µM; in [9] it was 30.4 µM; in assay [2] it was 25.9 µM; in [3], 33.4 µM; in [4], 31.4 µM. Moreover, the TGI was 33.2 µM in assay [5] and 30.2 µM in [8].

With `CCN(CCCCCCCCCCN1CC(=O)N(CCCCCCCCCCN(CC)Cc2ccccc2OC)CC1=O)Cc1ccccc1OC`, the GI50 in [6] was 1.09 µM; in assay [2] it was 1.02 µM; in [3] it was 1.31 µM; in assay [4], 1.51 µM; in assay [7], 3.18 µM; in assay [5] it was 0.355 µM. Also, the TGI stood at 2.94 µM in assay [6]; 3.6 µM in [2]; 2.96 µM in [3]; 3.57 µM in assay [4]; 10.5 µM in assay [7]; 2.37 µM in assay [5].

For the compound `Nc1c(S(N)(=O)=O)cc(S(N)(=O)=O)cc1S(N)(=O)=O`, the TGI in assay [1], in assay [6], in assay [9], in assay [3], in assay [4] and in assay [7] was greater than 100 µM each time. In assay [8], this compound registered a TGI greater than 100 µM.

On to `O=P1(C(O)/C=C/c2ccccc2)N(Cc2ccccc2)[C@@H]2CCCC[C@H]2N1Cc1ccccc1` (stereo not given in full), for which the TGI was determined as 18.8 µM in [1]; 11.2 µM in assay [6]; 14 µM in assay [9]; 5.88 µM in assay [2]; 15.1 µM in assay [3]; 11.6 µM in assay [4]. Further, the TGI was 20.6 µM in assay [7] and 28.5 µM in [8].

On to `CCOC(=O)Cn1nnc2cc(Nc3c(C)[n+]([O-])c4cc(F)c(OCC)cc4[n+]3[O-])ccc21`, for which the TGI is greater than 100 µM in assay [1]; greater than 100 µM in assay [6]; greater than 100 µM in [9]; greater than 100 µM in assay [2]; greater than 100 µM in assay [3]; 64.4 µM in assay [8].
